# Reference: ChEMBL document CHEMBL1201862, “PubChem BioAssay data set” (2004)
# Calls of active or inactive are those of the source.
# What was measured:
# [1] = biological target: Voltage-dependent T-type calcium channel subunit alpha-1H (Homo sapiens, UniProt O95180); type: functional;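 further: channel activity triggered by adding a high calcium stimulation buffer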
# [2] = blockers of HIV-1 envelope-mediated cell-cell fusion – cherry-pick, dose response (AID 652057); type: functional, cell-based
# [3] = HIV-1 AD8 envelope cell-cell fusion blockers – cherry-pick, dose response (AID 652062); type: functional, cell-based;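 further: luciferase signal from cell-cell fusion driven by HIV-1 clade B AD8 Env; potency is for inhibitors of fusion seen as a drop in luminescence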
# [4] = blockers of HIV-1 ZM109 envelope-driven cell-cell fusion – HeLa effector, CEM target cells, luciferase, cherry-pick, dose response (AID 652058); type: functional, cell-based;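 further: luciferase signal from HIV-1 Env mediated cell-cell fusion of effector and target cells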
# [5] = off-target signal loss in HeLa-CEM21 co-culture – HeLa F-luc CTL cells, cherry-picked, counter-screen for HIV-1 Env fusion inhibitor project, dose response (AID 652040); type: functional, cell-based;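 further: potency for signal decrease marking cytotoxic or nonspecific inhibition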
# [6] = cells; type: functional
# [7] = biological target: T1, Fatty acid synthase (Homo sapiens, UniProt P49327); test: inhibition of human FAS-TE enzyme activity – biochemical, endpoint fluorescence intensity, uHTS hits, dose response (AID 624327); type: functional;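 further: fluorescence from hydrolysis of an O-methyl fluorescein acyl ester substrate by the enzyme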
# [8] = biological target: T1, Fatty acid synthase; test: inhibition of human FAS-TE enzyme activity – biochemical, kinetic fluorescence intensity, dose response (AID 624326); type: functional;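 further: rate of fluorescence rise from hydrolysis of a fluorogenic O-methyl fluorescein ester substrate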
# [9] = system: Streptococcus sp. 'group A'; test: Streptococcus pyogenes SK(-)GAS viability under kanamycin – luminescence, BacTiterGlo, confirmation, counter-screen for streptokinase expression inhibitor project, dose response (AID 1900); type: functional, organism-based
# [10] = cells; type: functional, cell-based
# [11] = system: Streptococcus; test: GAS UMAA2166 growth inhibition – luminescence, BacTiterGlo, counter-screen for streptokinase expression inhibitor project, dose response (AID 1915); type: functional, organism-based;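 further: potency for reduction of bacterial viability or growth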
# [12] = biological target: T2, Streptokinase A (Streptococcus pyogenes serotype M1, UniProt P10520); test: viability-normalized secreted streptokinase activity reduction – plasminogen activation absorbance, OD405, dose response (AID 1914); type: functional, Streptococcus pyogenes M1 GAS;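 further: secreted streptokinase activity via plasminogen activation per viability signal from cell pellet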
# T2 sequence (P10520 whole entry): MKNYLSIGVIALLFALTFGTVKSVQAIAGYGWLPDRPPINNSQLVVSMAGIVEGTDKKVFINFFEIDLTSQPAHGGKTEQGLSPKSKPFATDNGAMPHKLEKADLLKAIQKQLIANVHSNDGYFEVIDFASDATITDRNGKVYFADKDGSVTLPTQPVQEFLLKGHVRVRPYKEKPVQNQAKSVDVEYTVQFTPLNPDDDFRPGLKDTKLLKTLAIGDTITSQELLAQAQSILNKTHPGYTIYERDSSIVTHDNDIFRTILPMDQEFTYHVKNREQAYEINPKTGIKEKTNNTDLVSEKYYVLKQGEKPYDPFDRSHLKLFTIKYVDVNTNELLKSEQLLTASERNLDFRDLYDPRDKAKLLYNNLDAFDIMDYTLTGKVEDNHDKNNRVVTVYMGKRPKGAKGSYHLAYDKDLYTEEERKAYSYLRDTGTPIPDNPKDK
# [13] = cells; type: functional, cell-based; remark: listed apart in the source
# [14] = biological target: Cytochrome P450 2C9 (Homo sapiens, UniProt P11712)
# [15] = biological target: Cytochrome P450 2C19 (Homo sapiens, UniProt P33261); test: Cytochrome panel assay with activity outcomes. Panel member name: p450-cyp2c19 Compounds with AC50 equal or less than 10 uM are considered active; type: functional; conditions: read-out: AC50
# [16] = Luminescence Cell-Based Dose Retest to Confirm Inhibitors of Cancer Stem Cells. [Related pubchem assays (depositor defined):AID2717, AID2721]; type: functional; conditions: Homo sapiens
# [17] = Luminescence Cell-Based Dose Response HTS to Identify Inhibitors of 5'UTR Stem-Loop Driven Prion Protein mRNA Translation in H4 Neuroglioblastoma Cells. [Related pubchem assays: 1827 (Project Summary), 1813 (Primary HTS)]; type: functional
# [18] = luciferase reporter signal suppression in cells – H4 neuroglioma cells, luminescence, dose response (AID 1990); type: functional, cell-based
# [19] = alpha-synuclein stem-loop luciferase translation blockers – H4 neuroglioma cells, luminescence, confirmation (AID 1988); type: functional, cell-based
# T1 sequence (P49327 whole entry): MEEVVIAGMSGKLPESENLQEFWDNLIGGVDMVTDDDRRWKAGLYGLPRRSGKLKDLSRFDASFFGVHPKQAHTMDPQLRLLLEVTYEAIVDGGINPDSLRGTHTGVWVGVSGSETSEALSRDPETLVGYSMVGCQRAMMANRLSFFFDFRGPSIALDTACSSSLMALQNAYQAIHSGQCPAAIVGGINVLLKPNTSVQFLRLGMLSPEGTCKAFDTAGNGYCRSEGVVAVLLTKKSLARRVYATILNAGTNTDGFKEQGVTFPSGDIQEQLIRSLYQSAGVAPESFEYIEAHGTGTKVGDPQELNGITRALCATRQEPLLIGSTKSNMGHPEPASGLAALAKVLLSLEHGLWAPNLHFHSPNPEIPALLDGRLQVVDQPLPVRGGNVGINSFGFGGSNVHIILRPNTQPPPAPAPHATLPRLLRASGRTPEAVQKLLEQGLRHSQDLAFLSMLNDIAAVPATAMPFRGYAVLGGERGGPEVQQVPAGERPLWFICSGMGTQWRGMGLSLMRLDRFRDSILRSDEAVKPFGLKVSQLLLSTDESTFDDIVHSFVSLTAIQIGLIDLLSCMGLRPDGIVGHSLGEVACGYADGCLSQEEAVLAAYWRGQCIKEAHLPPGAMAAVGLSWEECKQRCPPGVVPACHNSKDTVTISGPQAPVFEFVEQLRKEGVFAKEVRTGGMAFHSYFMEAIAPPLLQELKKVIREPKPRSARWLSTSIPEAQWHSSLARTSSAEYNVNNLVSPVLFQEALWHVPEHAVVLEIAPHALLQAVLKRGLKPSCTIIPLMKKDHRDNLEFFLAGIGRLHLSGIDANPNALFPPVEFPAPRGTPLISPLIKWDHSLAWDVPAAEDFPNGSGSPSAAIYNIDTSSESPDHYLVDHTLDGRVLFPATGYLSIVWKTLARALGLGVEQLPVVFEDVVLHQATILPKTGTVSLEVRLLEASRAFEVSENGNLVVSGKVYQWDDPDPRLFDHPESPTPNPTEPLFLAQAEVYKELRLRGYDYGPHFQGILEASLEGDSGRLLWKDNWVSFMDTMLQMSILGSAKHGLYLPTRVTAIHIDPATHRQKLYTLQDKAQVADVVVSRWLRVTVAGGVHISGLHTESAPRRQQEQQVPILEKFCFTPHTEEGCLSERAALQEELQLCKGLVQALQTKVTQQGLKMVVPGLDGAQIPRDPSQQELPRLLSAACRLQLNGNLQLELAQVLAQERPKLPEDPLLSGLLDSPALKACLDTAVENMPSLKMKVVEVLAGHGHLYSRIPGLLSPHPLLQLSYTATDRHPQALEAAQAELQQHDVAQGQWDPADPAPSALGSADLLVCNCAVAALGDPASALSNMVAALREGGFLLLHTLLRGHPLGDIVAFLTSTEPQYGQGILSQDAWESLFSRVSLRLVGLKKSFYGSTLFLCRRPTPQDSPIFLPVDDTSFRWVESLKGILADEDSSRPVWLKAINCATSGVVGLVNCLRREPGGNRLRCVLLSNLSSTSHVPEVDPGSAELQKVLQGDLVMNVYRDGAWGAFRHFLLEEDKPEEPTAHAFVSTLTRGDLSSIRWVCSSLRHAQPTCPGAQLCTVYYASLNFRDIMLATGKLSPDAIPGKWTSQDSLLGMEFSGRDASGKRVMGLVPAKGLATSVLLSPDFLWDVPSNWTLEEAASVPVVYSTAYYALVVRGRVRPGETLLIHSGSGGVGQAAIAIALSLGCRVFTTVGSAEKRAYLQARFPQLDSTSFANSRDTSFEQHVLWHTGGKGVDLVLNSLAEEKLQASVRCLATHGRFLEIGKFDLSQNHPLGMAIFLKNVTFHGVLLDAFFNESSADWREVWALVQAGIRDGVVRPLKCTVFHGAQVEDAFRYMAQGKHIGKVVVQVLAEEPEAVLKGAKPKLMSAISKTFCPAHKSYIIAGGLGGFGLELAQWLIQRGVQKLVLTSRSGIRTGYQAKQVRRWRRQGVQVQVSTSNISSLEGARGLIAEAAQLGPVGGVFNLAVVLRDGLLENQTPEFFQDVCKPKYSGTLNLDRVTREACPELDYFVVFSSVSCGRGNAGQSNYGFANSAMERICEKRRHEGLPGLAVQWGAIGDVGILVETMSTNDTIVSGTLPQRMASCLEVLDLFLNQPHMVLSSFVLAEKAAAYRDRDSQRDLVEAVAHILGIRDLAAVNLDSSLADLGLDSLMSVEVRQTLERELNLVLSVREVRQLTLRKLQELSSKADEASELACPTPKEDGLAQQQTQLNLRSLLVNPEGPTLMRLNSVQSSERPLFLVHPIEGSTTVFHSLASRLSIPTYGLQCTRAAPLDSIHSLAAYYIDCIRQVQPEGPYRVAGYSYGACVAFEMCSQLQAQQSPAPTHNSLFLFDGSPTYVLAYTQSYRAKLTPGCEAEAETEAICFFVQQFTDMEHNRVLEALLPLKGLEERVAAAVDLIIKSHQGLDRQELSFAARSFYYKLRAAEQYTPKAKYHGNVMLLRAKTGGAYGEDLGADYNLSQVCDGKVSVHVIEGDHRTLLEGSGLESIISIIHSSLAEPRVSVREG
# Voltage-dependent T-type calcium channel subunit alpha-1H, sequence (O95180 whole entry, the tested form may be a part): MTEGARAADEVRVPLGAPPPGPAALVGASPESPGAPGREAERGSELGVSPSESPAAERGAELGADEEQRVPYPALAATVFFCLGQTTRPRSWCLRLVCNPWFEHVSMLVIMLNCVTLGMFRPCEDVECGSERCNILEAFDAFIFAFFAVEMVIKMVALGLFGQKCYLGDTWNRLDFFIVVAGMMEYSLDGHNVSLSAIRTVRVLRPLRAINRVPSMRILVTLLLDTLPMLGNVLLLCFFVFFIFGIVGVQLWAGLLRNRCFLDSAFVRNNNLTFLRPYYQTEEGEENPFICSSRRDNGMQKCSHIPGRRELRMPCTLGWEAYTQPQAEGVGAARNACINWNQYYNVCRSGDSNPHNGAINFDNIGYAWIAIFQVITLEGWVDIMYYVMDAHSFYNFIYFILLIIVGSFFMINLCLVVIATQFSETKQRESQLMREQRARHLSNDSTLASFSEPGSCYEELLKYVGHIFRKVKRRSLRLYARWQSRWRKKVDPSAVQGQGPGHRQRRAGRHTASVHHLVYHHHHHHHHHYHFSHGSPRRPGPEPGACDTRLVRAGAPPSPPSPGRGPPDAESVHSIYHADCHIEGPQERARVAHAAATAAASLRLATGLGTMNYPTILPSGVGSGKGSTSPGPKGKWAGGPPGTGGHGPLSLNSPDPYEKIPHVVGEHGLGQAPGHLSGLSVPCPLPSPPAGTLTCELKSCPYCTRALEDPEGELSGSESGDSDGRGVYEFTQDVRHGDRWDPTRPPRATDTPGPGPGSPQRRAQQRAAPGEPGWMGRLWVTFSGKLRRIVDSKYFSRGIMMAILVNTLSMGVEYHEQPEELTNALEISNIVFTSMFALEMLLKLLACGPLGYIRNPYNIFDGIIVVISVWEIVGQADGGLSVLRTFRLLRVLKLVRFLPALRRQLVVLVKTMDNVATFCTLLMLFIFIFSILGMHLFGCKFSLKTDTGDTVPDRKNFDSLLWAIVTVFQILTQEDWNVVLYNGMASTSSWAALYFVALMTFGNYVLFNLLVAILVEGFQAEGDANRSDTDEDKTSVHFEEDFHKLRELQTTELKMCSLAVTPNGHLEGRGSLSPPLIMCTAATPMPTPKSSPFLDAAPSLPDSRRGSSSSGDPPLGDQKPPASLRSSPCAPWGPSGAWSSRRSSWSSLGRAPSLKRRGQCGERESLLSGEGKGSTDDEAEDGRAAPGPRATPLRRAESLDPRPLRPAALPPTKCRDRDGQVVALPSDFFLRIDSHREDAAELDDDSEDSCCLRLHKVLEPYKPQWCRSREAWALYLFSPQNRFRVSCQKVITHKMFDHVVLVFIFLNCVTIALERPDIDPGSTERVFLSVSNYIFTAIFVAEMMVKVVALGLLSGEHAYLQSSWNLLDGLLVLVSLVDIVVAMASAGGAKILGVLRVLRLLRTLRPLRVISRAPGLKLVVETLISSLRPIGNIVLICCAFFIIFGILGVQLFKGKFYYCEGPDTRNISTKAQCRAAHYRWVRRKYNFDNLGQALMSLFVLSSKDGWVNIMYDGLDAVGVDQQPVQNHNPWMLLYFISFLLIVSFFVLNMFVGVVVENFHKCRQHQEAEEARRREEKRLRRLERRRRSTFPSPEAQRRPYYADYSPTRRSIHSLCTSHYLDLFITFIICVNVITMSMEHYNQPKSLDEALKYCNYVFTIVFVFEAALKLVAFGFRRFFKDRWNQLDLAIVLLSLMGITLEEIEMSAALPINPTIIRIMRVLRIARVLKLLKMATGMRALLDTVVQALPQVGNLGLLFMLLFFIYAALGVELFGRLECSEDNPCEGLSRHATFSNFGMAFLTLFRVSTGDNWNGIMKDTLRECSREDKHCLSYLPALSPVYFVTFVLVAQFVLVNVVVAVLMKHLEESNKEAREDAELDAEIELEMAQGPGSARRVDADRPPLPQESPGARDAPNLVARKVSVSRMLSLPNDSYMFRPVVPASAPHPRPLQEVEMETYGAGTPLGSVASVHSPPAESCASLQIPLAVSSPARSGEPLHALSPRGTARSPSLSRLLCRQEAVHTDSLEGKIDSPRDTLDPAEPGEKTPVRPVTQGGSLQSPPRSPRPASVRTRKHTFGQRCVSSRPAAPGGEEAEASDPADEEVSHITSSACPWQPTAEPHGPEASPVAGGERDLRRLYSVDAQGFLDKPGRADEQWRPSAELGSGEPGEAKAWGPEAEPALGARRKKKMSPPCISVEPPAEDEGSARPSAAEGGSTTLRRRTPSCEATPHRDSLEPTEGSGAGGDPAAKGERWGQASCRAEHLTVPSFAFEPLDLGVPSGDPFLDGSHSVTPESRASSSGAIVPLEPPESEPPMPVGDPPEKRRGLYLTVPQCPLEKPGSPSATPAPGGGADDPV
smiles,measurement,setting,value
COc1cccc(N2CCN(CC(=O)Nc3nnc(-c4ccccc4)s3)CC2)c1,EC50,[1],6.4 µM (active)
CCC(=O)Nc1ccc(S(=O)(=O)N2CCc3ccccc3C2)cc1,EC50,[1],7.83 µM (active)
Cc1ccc(C)c(N2CCN(C(=O)CC3Sc4ccccc4NC3=O)CC2)c1 (stereo not given),EC50,[1],3.76 µM (active)
CC(C(=O)N1c2ccccc2Sc2ccccc21)n1nnc(-c2cccs2)n1 (stereo not given),EC50,[1],6.38 µM (active)
COc1ccc(Cn2nnnc2C(c2cc3cc(C)cc(C)c3nc2O)N2CCOCC2)cc1 (stereo not given),AC50,[2],3.39 µM (active)
same,AC50,[3],5.51 µM (active)
same,AC50,[4],4.35 µM (active)
same,AC50,[5],4.7 µM (active)
O=C(COC(=O)CCc1c[nH]c2ccccc12)Nc1cc([N+](=O)[O-])ccc1Cl,IC50,[6],4.54 µM (active)
same,IC50,[7],15.2 µM (active)
same,IC50,[8],10.7 µM (active)
Cc1nc2ccccc2c(=O)n1/N=C/c1ccc2ccccc2c1O,EC50,[9],44.6 µM (active)
same,EC50,[10],> 350 µM (not active)
same,EC50,[11],> 150 µM (not active)
same,EC50,[12],> 150 µM (not active)
same,EC50,[13],> 350 µM (not active)
CCN(CC)S(=O)(=O)c1ccc(N2CCOCC2)c(NC(=O)c2cccc3ccccc23)c1,EC50,[10],> 350 µM (not active)
same,EC50,[13],> 350 µM (not active)
COCCNC(=O)c1sc2nc(-c3ccccc3)cn2c1C,EC50,[10],> 350 µM (not active)
same,AC50,[14],28.2 µM (inconclusive)
same,AC50,[15],20 µM (inconclusive)
same,EC50,[13],> 350 µM (not active)
O=C(CNC(=O)C(c1ccccc1)c1ccccc1)N/N=C/c1ccc(O)cc1O,EC50,[10],17.5 µM (active)
same,AC50,[16],2.59 µM (active)
same,EC50,[13],> 350 µM (not active)
N#C/C(=C\c1cn(CCOc2ccccc2)c2ccccc12)C(=O)NCC1CCCO1 (stereo not given),EC50,[1],5.31 µM (active)
Cn1c(-c2ccccc2)cnc1NCc1cccc([N+](=O)[O-])c1,IC50,[7],6.81 µM (active)
same,IC50,[8],8.79 µM (active)
CC[C@@]12C(=O)N(c3ccc(C)cc3)C(=O)N1[C@H](c1ccc(OC)cc1)[C@@H]1C(=O)N(C(C)(C)C)C(=O)[C@@H]12,AC50,[2],2.37 µM (active)
same,AC50,[3],3.09 µM (active)
same,AC50,[4],2.86 µM (active)
same,AC50,[5],4.94 µM (active)
COc1ccc(NC(=O)c2cccc(NC(=O)c3ccco3)c2)c(OC)c1,EC50,[10],> 350 µM (not active)
same,EC50,[13],> 350 µM (not active)
Cc1cc(C)nc(N/N=C/C2=C(O)CC(c3ccccc3)CC2=O)n1 (stereo not given),EC50,[17],14.5 µM (active)
same,EC50,[10],> 350 µM (not active)
same,EC50,[18],14.7 µM (active)
same,EC50,[19],11.3 µM (active)
same,EC50,[13],> 350 µM (not active)
Cc1ccccc1CSCCNC(=O)CN(c1ccc2c(c1)OCO2)S(C)(=O)=O,EC50,[1],5 µM (active)
O=C(CN1CCN(c2ccccc2)CC1)Nc1cccc([N+](=O)[O-])c1,IC50,[7],9.24 µM (active)
same,IC50,[8],10.7 µM (active)
Cc1c(Br)c([N+](=O)[O-])nn1CC(=O)Nc1ccc(Cc2ccncc2)cc1,IC50,[7],9.53 µM (active)
same,IC50,[8],8.12 µM (active)
O=C(N/N=C/C(Br)=C\c1ccccc1)c1ccco1,EC50,[10],> 350 µM (not active)
same,EC50,[13],13.8 µM (active)
COc1ccc(CCC(C)NCc2cc(OC)cc(OC)c2)cc1 (stereo not given),AC50,[2],6.55 µM (active)
same,AC50,[3],14.1 µM (active)
same,AC50,[4],9.46 µM (active)
same,AC50,[5],7.92 µM (active)
